From paper PMC11866022, “Long-Chain Cyclic Arylguanidines as Multifunctional Serotonin Receptor Ligands with Antiproliferative Activity” (ACS Omega, 2025)

What was measured:
5-HT1A = target: T1, 5-HT1A (Homo sapiens, UniProt P08908); experiment: Radioligand binding assay, 5-HT1A ([3H]-8-OHDPAT); conditions: Table 3, unit inferred; 2.5 nM [3H]-8-OHDPAT
T1 construct: expressed in transfected cells; host or cells: HEK293
T1 sequence (P08908 1-422): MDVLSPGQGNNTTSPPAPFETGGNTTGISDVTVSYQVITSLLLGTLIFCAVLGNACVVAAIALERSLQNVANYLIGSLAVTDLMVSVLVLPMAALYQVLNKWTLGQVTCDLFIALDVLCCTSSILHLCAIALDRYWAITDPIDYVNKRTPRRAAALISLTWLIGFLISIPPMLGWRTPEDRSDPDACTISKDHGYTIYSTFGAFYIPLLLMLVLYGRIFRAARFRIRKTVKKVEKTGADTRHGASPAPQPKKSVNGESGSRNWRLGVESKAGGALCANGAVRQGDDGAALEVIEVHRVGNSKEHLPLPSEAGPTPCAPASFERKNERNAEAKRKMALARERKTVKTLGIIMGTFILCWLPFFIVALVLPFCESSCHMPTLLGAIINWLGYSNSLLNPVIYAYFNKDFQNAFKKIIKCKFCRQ
Procedure: Their functional activity was also evaluated by assessing their ability to inhibit agonist-induced cAMP production in HEK293 cells (Table 3). Extended radioisotope tests were aimed at detecting potential affinity for other aminergic receptors, whose role in cancer treatment may be important. Functions were tested for all receptors. The essence of functional tests results from the fact that serotonin stimulates tumor progression. Therefore, the ligand should have the potential to reduce its concentration, i.e., act as an antagonist.[39]
The detailed procedure is presented in previous publications.[53] Assays were performed by incubating for 1 h at 37 °C (room temperature for 5-HT1A) in 200 μL volumes on 96-well plates. The reaction was terminated by rapid filtration using Unifilter plates, and radioactivity on the filters was measured with a PerkinElmer Microbeta plate reader. Radioligands used were:
Eight concentrations (10^–4 to 10^–11 M) were tested in triplicate for each compound. Inhibition constants (Ki) were calculated using the Cheng–Prusoff equation.[54] The results are expressed as the means of at least two independent experiments.

HEK293 = experiment: Viability of HEK293 cells; assay type: cell-based; conditions: Homo sapiens
From the text: PP 10 was characterized by a moderate 5-HT1A/5-HT5A/5-HT6/5-HT7 antagonist profile. […] Due to its potential function as an […], the viability of HEK293 cells treated with the test compounds was examined. No cytotoxic effects of the compounds were detected in the tested concentration range.

Danio rerio [1] = conditions: in vivo
Procedure: Two compounds, PP 10 and PP 15, were tested for cardiotoxicity in the Danio rerio experimental model (OECD 236 test). […]. To assess potential neurotoxic effects, locomotor activity was examined in the Danio rerio model. Zebrafish larvae’s response to light and dark transitions serves as a useful method for detecting neurotoxicity. […] In our experiment, we switched from light to dark conditions, as zebrafish larvae are known to avoid light and seek darker areas. This behavior helps them evade predators and maintain ideal environmental conditions. […]
Figure 4 A: Toxicity of PP 10 and PP 15in vivo in the Danio reiro embryo toxicity test. […] Cardiotoxicity of compounds B: PP 10 and C: PP 15 was evaluated by measuring the heart rate (beats per minute) in 5-dpf Danio rerio larvae, maintained in the E3 fish embryo growth medium. Statistical analysis was performed using GraphPad Prism 10.0.0, with one-way ANOVA followed by Dunnett’s comparison test (*p < 0.05, compared to the negative control E3). […] | The toxicity of compounds was evaluated using two tests: the fish embryo toxicity (FET) test and neurotoxicity assessment.[53] […] Acute toxicity was assessed by monitoring signs such as coagulation of fertilized eggs, somite formation absence, tailbud separation, and lack of heartbeat. The LD50 value was calculated, and cardiovascular effects were monitored through heartbeat observations.

HepG2 hepatoma cells = experiment: Hepatotoxicity (MTS), HepG2; assay type: cell-based, human; conditions: 48 h; for hepatotoxic effect on HepG2: 1–10 μM; for HepG2 cell viability: 50 or 100 μM
Procedure: As a next step, we decided to investigate the potential toxicity of our lead compounds by assessing their toxic effects on the liver (in vitro), heart, and brain (in vivo). The safety profile was assessed through a hepatotoxicity assay using HepG2 hepatoma cells. (Figures 2E,F, 3E,F).

Danio rerio [2] = experiment: Fish embryo toxicity test (OECD 236); assay type: in vivo; conditions: Danio rerio embryos, 96 h of exposure
Procedure: Two compounds, PP 10 and PP 15, were tested for cardiotoxicity in the Danio rerio experimental model (OECD 236 test). […] To assess potential neurotoxic effects, locomotor activity was examined in the Danio rerio model. Zebrafish larvae’s response to light and dark transitions serves as a useful method for detecting neurotoxicity. […] In our experiment, we switched from light to dark conditions, as zebrafish larvae are known to avoid light and seek darker areas. This behavior helps them evade predators and maintain ideal environmental conditions.
Figure 4 A: Toxicity of PP 10 and PP 15in vivo in the Danio reiro embryo toxicity test. […] Cardiotoxicity of compounds B: PP 10 and C: PP 15 was evaluated by measuring the heart rate (beats per minute) in 5-dpf Danio rerio larvae, maintained in the E3 fish embryo growth medium. Statistical analysis was performed using GraphPad Prism 10.0.0, with one-way ANOVA followed by Dunnett’s comparison test (*p < 0.05, compared to the negative control E3).
The toxicity of compounds was evaluated using two tests: the fish embryo toxicity (FET) test and neurotoxicity assessment.[53] […] Acute toxicity was assessed by monitoring signs such as coagulation of fertilized eggs, somite formation absence, tailbud separation, and lack of heartbeat. The LD50 value was calculated, and cardiovascular effects were monitored through heartbeat observations.

CYP3A4 = target: T2, CYP3A4 (Homo sapiens, UniProt P08684); experiment: P450-Glo assay, CYP3A4; assay type: in vitro ADME
T2 construct: purchased Promega
T2 sequence (P08684 whole entry): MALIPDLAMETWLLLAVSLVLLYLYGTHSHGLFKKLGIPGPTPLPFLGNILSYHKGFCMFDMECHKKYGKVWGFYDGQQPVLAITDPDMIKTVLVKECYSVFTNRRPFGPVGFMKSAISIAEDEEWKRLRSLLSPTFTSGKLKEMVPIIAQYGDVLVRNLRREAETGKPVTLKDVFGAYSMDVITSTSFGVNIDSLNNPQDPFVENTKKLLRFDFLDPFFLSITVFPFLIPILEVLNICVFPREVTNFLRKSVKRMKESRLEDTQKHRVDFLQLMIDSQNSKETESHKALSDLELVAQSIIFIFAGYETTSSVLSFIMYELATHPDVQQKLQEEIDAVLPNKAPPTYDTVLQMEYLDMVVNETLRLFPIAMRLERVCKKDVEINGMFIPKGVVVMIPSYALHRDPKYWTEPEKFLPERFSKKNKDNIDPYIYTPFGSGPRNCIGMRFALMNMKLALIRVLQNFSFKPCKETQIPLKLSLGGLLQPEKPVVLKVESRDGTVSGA
From the text: In order to evaluate excretion, we examined the effect on the activity of two cytochrome P-450 isoforms. Inhibition of their activity may lead to the occurrence of drug–drug interactions.

[3] = tested on: HSA and AGP in a ratio 24:1; experiment: TRANSILXL PPB plasma protein binding assay; conditions: Figures S149, S150

Compound	Ki (5-HT1A) [µM]	IC50 (HEK293) [µM]	cardiotoxic effects (heart rate) (Danio rerio [1])	hepatotoxic effect on HepG2 (HepG2 hepatoma cells)	HepG2 cell viability (HepG2 hepatoma cells)	LD50 / LC50 (Figure 4) (Danio rerio [2]) [µg/mL]	impact on the activity of CYP3A4 (CYP3A4)	amount remaining after incubation with human plasma proteins (UPLC) [3]	cytotoxic effect on HepG2 (HepG2 hepatoma cells; 10 μM)
O=S(=O)(c1cccc2ccccc12)N1CCN(CCNC2=Nc3ccccc3CN2)CC1 [PP 6, N-{2-[4-(Naphthalene-1-sulfonyl)piperazin-1-yl]ethyl}-3,4-dihydroquinazolin-2-amine]	0.042	51	–	–	–	–	–	–	–
CC1NC(NCCCCCCNS(=O)(=O)c2cccc3ccccc23)=Nc2ccccc21 (centres unmarked) [PP 10, N-{6-[(4-Methyl-3,4-dihydroquinazolin-2-yl)amino]hexyl}naphthalene-1-sulfonamide]	0.165	> 50	Neither compound displayed cardiotoxic effects	no hepatotoxic effects	statistically significant decrease in cell viability	15.34	weakest interaction	–	–
CC1NC(NCCCCCCNS(=O)(=O)c2c(Cl)ccc3ccccc23)=Nc2ccccc21 (centres unmarked) [PP 13, 2-Chloro-N-{6-[(4-methyl-3,4-dihydroquinazolin-2-yl)amino]hexyl}naphthalene-1-sulfonamide]	0.019	> 50	–	no hepatotoxic effects	statistically significant decrease in cell viability	–	–	COMPOUND NOT DETECTED	–
O=S(=O)(NCCCCCCNc1ncc2ccccc2n1)c1cccc2ccccc12 [PP 15, N-{6-[(Quinazolin-2-yl)amino]hexyl}naphthalene-1-sulfonamide]	7.16	> 50	Neither compound displayed cardiotoxic effects	no hepatotoxic effects	statistically significant decrease in cell viability	2.147	passive	–	–
O=S1(=O)c2cccc3cccc(c23)N1CCCCCCNC1=Nc2ccccc2CN1 [PP 24, 3-{6-[(3,4-Dihydroquinazolin-2-yl)amino]hexyl}-2λ^6-thia-3-azatricyclo[6.3.1.0^4,^12]dodeca-1(11),4(12),5,7,9-pentaene-2,2-dione]	–	–	–	–	–	–	–	COMPOUND NOT DETECTED	strong cytotoxic effect
